This note sets out measurements from PMC11040327 (RSC Advances, 2024).

For data set [1], the system named is HCT-116 cells. Kind of data set: MTT cytotoxicity assay against HCT-116 cells. The format is cell-based. In general terms: Formazan colour is commonly taken as a measure of viable cells.
The next data set concerns the target VEGFR2 (Homo sapiens, UniProt P35968). Kind of data set: VEGFR2 kinase inhibition assay. The data set is classed as biochemical. The following applies: for inhibition at 10 µM: read-out: VEGFR2 % Of inhibition at [10 μM], 10 μM compound.
Data set [2] has as its system HCT-116 cells. The experiment in a line: Annexin V/PI flow cytometry for apoptosis in HCT-116 cells. The format is cell-based. The following applies: treated at IC50 for 48 h. Background: In flow cytometry, cells or beads pass a laser one at a time.
Where [3] appears, read: Homo sapiens, HCT-116, 48 h, read-out: IC50 (μM) ± SD, cytotoxicity against HCT-116 cells, HCT-116 cells, MTT assay, 48 h, three independent trials.

The structures appear in SMILES notation. Like-named read-outs stand apart in the source and are kept apart here.

The IC50 is the point on the concentration scale where inhibition reaches its midpoint. Usually inhibition stands for the relative decrease from the control value, in per cent.

VEGFR2, sequence (P35968 20-1356): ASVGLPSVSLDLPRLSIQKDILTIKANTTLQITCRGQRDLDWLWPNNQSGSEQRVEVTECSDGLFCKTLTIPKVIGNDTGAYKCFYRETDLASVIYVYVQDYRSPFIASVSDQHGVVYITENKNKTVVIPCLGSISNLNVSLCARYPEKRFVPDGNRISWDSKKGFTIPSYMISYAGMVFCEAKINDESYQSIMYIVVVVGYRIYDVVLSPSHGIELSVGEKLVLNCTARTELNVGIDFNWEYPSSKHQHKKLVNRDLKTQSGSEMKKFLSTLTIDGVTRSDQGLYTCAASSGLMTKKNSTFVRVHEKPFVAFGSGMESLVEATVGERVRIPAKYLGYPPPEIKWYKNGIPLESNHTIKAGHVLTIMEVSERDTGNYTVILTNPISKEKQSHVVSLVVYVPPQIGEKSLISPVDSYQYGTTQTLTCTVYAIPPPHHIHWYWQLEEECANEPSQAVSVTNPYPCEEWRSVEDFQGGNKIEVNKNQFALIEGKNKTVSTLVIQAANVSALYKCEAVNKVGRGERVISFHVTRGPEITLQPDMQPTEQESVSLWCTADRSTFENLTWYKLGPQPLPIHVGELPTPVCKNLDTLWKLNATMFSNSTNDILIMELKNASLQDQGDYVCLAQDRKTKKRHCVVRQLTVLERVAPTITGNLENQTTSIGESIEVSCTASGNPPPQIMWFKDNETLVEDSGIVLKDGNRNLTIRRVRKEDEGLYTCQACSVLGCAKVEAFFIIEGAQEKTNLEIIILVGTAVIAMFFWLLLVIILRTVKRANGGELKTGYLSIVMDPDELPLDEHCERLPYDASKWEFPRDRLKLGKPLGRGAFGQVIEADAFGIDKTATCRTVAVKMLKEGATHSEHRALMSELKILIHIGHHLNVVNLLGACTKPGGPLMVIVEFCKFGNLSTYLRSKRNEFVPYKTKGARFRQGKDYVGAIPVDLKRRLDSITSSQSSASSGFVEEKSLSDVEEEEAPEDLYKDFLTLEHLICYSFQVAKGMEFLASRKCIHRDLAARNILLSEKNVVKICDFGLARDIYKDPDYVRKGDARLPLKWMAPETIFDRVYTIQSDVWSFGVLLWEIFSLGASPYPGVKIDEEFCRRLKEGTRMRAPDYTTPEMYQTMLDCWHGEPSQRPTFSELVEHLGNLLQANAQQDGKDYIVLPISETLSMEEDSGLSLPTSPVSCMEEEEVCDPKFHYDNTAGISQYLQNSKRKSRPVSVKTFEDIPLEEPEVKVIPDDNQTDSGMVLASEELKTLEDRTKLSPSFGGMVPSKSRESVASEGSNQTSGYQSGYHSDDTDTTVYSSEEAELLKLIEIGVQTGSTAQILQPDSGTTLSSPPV

With `NNC(=O)CCn1nc(Cc2ccccc2)c2ccccc2c1=O` [Compound 5, 3-(4-benzyl-1-oxophthalazin-2(1H)-yl) propanehydrazide], the IC50 with HCT-116 cells [1] (setting [3]) was 13.8 ± 0.2 µM.
Regarding `C=CCNC(=O)CCn1nc(Cc2ccccc2)c2ccccc2c1=O` [Compound 7a, N-allyl-3-(4-benzyl-1-oxophthalazin-2(1H)-yl)propanamide], the IC50 in the data set with HCT-116 cells [1] (setting [3]) stood at 34.8 ± 1.9 µM.
As to `O=C(CCn1nc(Cc2ccccc2)c2ccccc2c1=O)N1CCOCC1` [Compound 7b, 4-benzyl-2-(3-morpholino-3-oxopropyl) phthalazin-1(2H)-one], the IC50 in the data set with HCT-116 cells [1] (setting [3]) was 24.3 ± 1.5 µM.
Take `O=C(CCn1nc(Cc2ccccc2)c2ccccc2c1=O)N1CCCCC1` [Compound 7d, 4-benzyl-2-(3-oxo-3-(piperidin-1-yl)propyl) phthalazin-1(2H)-one]: the inhibition at 10 µM on VEGFR2 stood at 97.6%. Also, in the data set with HCT-116 cells [2], the “apoptosis induction, fold versus untreated cells” value is listed as 23.6 fold.
On to `CCCCNC(=O)CCn1nc(Cc2ccccc2)c2ccccc2c1=O` [Compound 7f, 3-(4-benzyl-1-oxophthalazin-2(1H)-yl)-N-butylpropanamide], for which the IC50 in the data set with HCT-116 cells [1] (setting [3]) turned out to be 18.8 ± 0.6 µM.
On the same count and under the same terms, the result for `O=C(CCn1nc(Cc2ccccc2)c2ccccc2c1=O)NCC(=O)N/N=C\c1ccc([N+](=O)[O-])cc1` [Compound 13a, (Z)-3-(4-benzyl-1-oxophthalazin-2(1H)-yl)-N-(2-(2-(4-nitrobenzylidene) hydrazinyl)-2-oxoethyl)propanamide] reads 45.7 ± 1.8 µM.
`COc1ccc(/C=N\NC(=O)CNC(=O)CCn2nc(Cc3ccccc3)c3ccccc3c2=O)cc1` [Compound 13c, (Z)-3-(4-benzyl-1-oxophthalazin-2(1H)-yl)-N-(2-(2-(4-methoxybenzylidene) hydrazinyl)-2-oxoethyl)propanamide]: the IC50 in the data set on HCT-116 cells [1] (setting [3]) came out at 0.64 ± 0.05 µM; against VEGFR2 (VEGFR2 IC50 [nM] ± SD, five concentrations, three replicates), 19.8 ± 0.6 nM. Moreover, the “VEGFR2 % Of inhibition at [10 μM]” value on VEGFR2 (10 μM compound, 10 µM) is listed as 96.4 ± 2.8%. The inhibition at 10 µM on VEGFR2 amounted to 95.2%.
With `CNC(=O)c1cc(Oc2ccc(NC(=O)Nc3ccc(Cl)c(C(F)(F)F)c3)cc2)ccn1` [Sorafenib, reference compound], the IC50 with HCT-116 cells [1] (setting [3]) was 2.93 µM; in the data set on HCT-116 cells [1] (read-out: IC50 (μM) ± SD, cytotoxicity against HCT-116 cells, HCT-116 cells, MTT assay, 48 h, three independent trials), 3.23 ± 0.03 µM.
